Results taken from the NIST ThermoML archive (doi:10.1016/j.fluid.2009.09.013).
± gives the expanded uncertainty stated by the source.

What was measured:
[1] = Crystal; DTA
[2] = Molar enthalpy of transition or fusion; conditions: Metastable crystal; DSC

Question: For `CC(C)(C)c1cc(CCC(=O)OCC(COC(=O)CCc2cc(C(C)(C)C)c(O)c(C(C)(C)C)c2)(COC(=O)CCc2cc(C(C)(C)C)c(O)c(C(C)(C)C)c2)COC(=O)CCc2cc(C(C)(C)C)c(O)c(C(C)(C)C)c2)cc(C(C)(C)C)c1O`, which Normal melting temperature [1] is on record?
Answer: 112.60 ± 0.5 °C

Question: What about the “Molar enthalpy of transition or fusion” value [2] of the same molecule?
Answer: 15.8 ± 0.43 kcal/mol
